Laboratory results: ChEMBL document CHEMBL6078666, “Discovery of Novel Coumarin Pleuromutilin Derivatives as Potent Anti-MRSA Agents” (J Med Chem, 2024)
Converted amounts (≈) assume the structure as drawn.

Experiments:
Format in all cases: functional
[1] = test system: Streptococcus pneumoniae; assay: Antibacterial activity against penicillin-resistant Streptococcus pneumoniae ATCC 51916 assessed as bacterial growth inhibition measured after 20 hrs by broth dilution method
[2] = test system: Staphylococcus aureus; assay: Antibacterial activity against methicillin-resistant Staphylococcus aureus clinical isolate 202313160 assessed as bacterial growth inhibition measured after 20 hrs by broth dilution method
[3] = test system: Staphylococcus aureus; assay: Ratio of MBC to MIC against methicillin-resistant Staphylococcus aureus clinical isolate 202313160
[4] = test system: Enterococcus faecium; assay: Ratio of MBC to MIC against vancomycin-resistant Enterococcus faecium clinical isolate 202308456
[5] = test system: Streptococcus pneumoniae; assay: Antibacterial activity against penicillin-intermediate Streptococcus pneumoniae ATCC 49619 assessed as bacterial growth inhibition measured after 20 hrs by broth dilution method
[6] = test system: Staphylococcus epidermidis; assay: Antibacterial activity against methicillin-resistant Staphylococcus epidermidis clinical isolate 202409139 assessed as bacterial growth inhibition measured after 20 hrs by broth dilution method
[7] = test system: Streptococcus pneumoniae; assay: Ratio of MBC to MIC against penicillin-intermediate Streptococcus pneumoniae ATCC 49619
[8] = test system: Staphylococcus aureus; assay: Antibacterial activity against methicillin-resistant Staphylococcus aureus ATCC 43300 assessed as bacterial growth inhibition measured after 20 hrs by broth dilution method
[9] = test system: Staphylococcus aureus; assay: Antibacterial activity against methicillin-resistant Staphylococcus aureus ATCC 33591 assessed as bacterial growth inhibition measured after 20 hrs by broth dilution method
[10] = test system: Staphylococcus aureus; assay: Antibacterial activity against methicillin-resistant Staphylococcus aureus clinical isolate 202311772 assessed as bacterial growth inhibition measured after 20 hrs by broth dilution method
[11] = test system: Staphylococcus epidermidis; assay: Antibacterial activity against methicillin-resistant Staphylococcus epidermidis clinical isolate 202409454 assessed as bacterial growth inhibition measured after 20 hrs by broth dilution method
[12] = test system: Staphylococcus epidermidis; assay: Ratio of MBC to MIC against Staphylococcus epidermidis ATCC 51625
[13] = test system: Enterococcus faecium; assay: Antibacterial activity against vancomycin-resistant Enterococcus faecium ATCC 51559 assessed as bacterial growth inhibition measured after 20 hrs by broth dilution method
[14] = test system: Staphylococcus epidermidis; assay: Ratio of MBC to MIC against methicillin-resistant Staphylococcus epidermidis clinical isolate 202409454
[15] = test system: Enterococcus faecium; assay: Ratio of MBC to MIC against vancomycin-resistant Enterococcus faecium ATCC 700221
[16] = test system: Staphylococcus aureus; assay: Ratio of MBC to MIC against Staphylococcus aureus ATCC 43300
[17] = test system: Staphylococcus aureus; assay: Antibacterial activity against methicillin-resistant Staphylococcus aureus clinical isolate 202405157 assessed as bacterial growth inhibition measured after 20 hrs by broth dilution method
[18] = test system: Enterococcus faecium; assay: Antibacterial activity against vancomycin-resistant Enterococcus faecium ATCC 700221 assessed as bacterial growth inhibition measured after 20 hrs by broth dilution method
[19] = test system: Staphylococcus epidermidis; assay: Antibacterial activity against Staphylococcus epidermidis ATCC 51625 assessed as bacterial growth inhibition measured after 20 hrs by broth dilution method
[20] = test system: Enterococcus faecium; assay: Ratio of MBC to MIC against vancomycin-resistant Enterococcus faecium ATCC 51559
[21] = test system: Enterococcus faecium; assay: Antibacterial activity against vancomycin-resistant Enterococcus faecium clinical isolate 202308456 assessed as bacterial growth inhibition measured after 20 hrs by broth dilution method
[22] = test system: Staphylococcus aureus; assay: Ratio of MBC to MIC against methicillin-resistant Staphylococcus aureus clinical isolate 202405157
[23] = test system: Streptococcus pneumoniae; assay: Ratio of MBC to MIC against penicillin-resistant Streptococcus pneumoniae ATCC 51916
[24] = test system: Staphylococcus aureus; assay: Ratio of MBC to MIC against methicillin-resistant Staphylococcus aureus clinical isolate 202311772

| SMILES | MIC [1] [µg/mL] | MIC [2] [µg/mL] | Ratio [4] | MIC [5] [µg/mL] | MIC [6] [µg/mL] | Ratio [7] | MIC [8] [µg/mL] | MIC [9] [µg/mL] | MIC [10] [µg/mL] | MIC [11] [µg/mL] | Ratio [12] | MIC [13] [µg/mL] | Ratio [14] | Ratio [15] | Ratio [16] | MIC [17] [µg/mL] | MIC [18] [µg/mL] | MIC [19] [µg/mL] | Ratio [20] | MIC [21] [µg/mL] | other results |
| --- | --- | --- | --- | --- | --- | --- | --- | --- | --- | --- | --- | --- | --- | --- | --- | --- | --- | --- | --- | --- | --- |
| C=C[C@]1(C)C[C@@H](OC(=O)CSc2cc(=O)oc3ccc([N+](=O)[O-])cc23)[C@]2(C)[C@H](C)CC[C@]3(CCC(=O)[C@H]32)[C@@H](C)[C@@H]1O | 0.25 (≈ 0.428 µM) | 0.063 (≈ 0.108 µM) | 1 | 0.125 (≈ 0.214 µM) | 0.063 (≈ 0.108 µM) | >4 | 0.063 (≈ 0.108 µM) | 0.031 (≈ 0.0531 µM) | 0.031 (≈ 0.0531 µM) | 0.125 (≈ 0.214 µM) | >4 | 0.063 (≈ 0.108 µM) | 2 | 2 | >4 | 0.063 (≈ 0.108 µM) | 0.031 (≈ 0.0531 µM) | 0.031 (≈ 0.0531 µM) | 2 | 0.125 (≈ 0.214 µM) | Ratio [3]: 4 |
| C=C[C@]1(C)C[C@@H](OC(=O)CSc2cc(=O)oc3ccccc23)[C@]2(C)[C@H](C)CC[C@]3(CCC(=O)[C@H]32)[C@@H](C)[C@@H]1O | 0.125 (≈ 0.232 µM) | 0.125 (≈ 0.232 µM) | >4 | 0.031 (≈ 0.0575 µM) | 0.125 (≈ 0.232 µM) | >4 | 0.063 (≈ 0.117 µM) | 0.031 (≈ 0.0575 µM) | 0.031 (≈ 0.0575 µM) | 0.25 (≈ 0.464 µM) | >4 | 0.125 (≈ 0.232 µM) | 2 | 1 | >4 | 0.125 (≈ 0.232 µM) | 0.031 (≈ 0.0575 µM) | 0.016 (≈ 0.0297 µM) | 4 | 0.125 (≈ 0.232 µM) | Ratio [22]: 2; Ratio [23]: 2; Ratio [24]: 2 |
| C=C[C@]1(C)C[C@@H](OC(=O)CSCCOc2cc(=O)oc3cc(OC)ccc23)[C@]2(C)[C@H](C)CC[C@]3(CCC(=O)[C@H]32)[C@@H](C)[C@@H]1O | 0.063 (≈ 0.103 µM) | 0.125 (≈ 0.204 µM) | >4 | 0.125 (≈ 0.204 µM) | 0.125 (≈ 0.204 µM) | >4 | 0.125 (≈ 0.204 µM) | 0.063 (≈ 0.103 µM) | 0.125 (≈ 0.204 µM) | 0.25 (≈ 0.408 µM) | >4 | 0.125 (≈ 0.204 µM) | >1 | >4 | >4 | 0.125 (≈ 0.204 µM) | 0.063 (≈ 0.103 µM) | 0.031 (≈ 0.0506 µM) | 2 | 0.125 (≈ 0.204 µM) | Ratio [22]: 4; Ratio [23]: 2 |
| C=C[C@]1(C)C[C@@H](OC(=O)CSCCOc2cc(=O)oc3ccccc23)[C@]2(C)[C@H](C)CC[C@]3(CCC(=O)[C@H]32)[C@@H](C)[C@@H]1O | 0.25 (≈ 0.429 µM) | 0.125 (≈ 0.214 µM) | 2 | 0.125 (≈ 0.214 µM) | 0.125 (≈ 0.214 µM) | >4 | 0.25 (≈ 0.429 µM) | 0.063 (≈ 0.108 µM) | 0.125 (≈ 0.214 µM) | 0.063 (≈ 0.108 µM) | >4 | 0.25 (≈ 0.429 µM) | 2 | >4 | >4 | 0.25 (≈ 0.429 µM) | 0.063 (≈ 0.108 µM) | 0.031 (≈ 0.0532 µM) | 2 | 0.125 (≈ 0.214 µM) | Ratio [3]: 2; Ratio [24]: 1 |
